One molecule from patent US8993595B2, “Macrocyclic serine protease inhibitors” (priority 2009, dated 2015) can be followed below.

Data set [1] deals with C-1a cell line (genotype 1a replicon selected with 25 nM, D168A). Description: Extent of resistance after selection, C-1a. Type of data set: cell-based, HCV. Particulars: selecting conc. 25 nM. How it is done: (§1) Replicon cells (genotype 1a or 1b) were treated with various concentrations of compound 52 in the presence of G418. Treatment-emergent genotypic changes were identified by population sequencing of NS3 (both protease and helicase regions). The activity of compound 52 and other compounds was evaluated by NS5A western blot after selection or luciferase assay during and after selection.

The conditions of data set [2]: monkey plasma.
Data set [3] concerns Zluc cell line (genotype 1b replicon with luciferase, unselected). The experiment in a line: Extent of resistance after selection, luciferase assay, Zluc. Type of data set: cell-based, HCV. Particulars: selecting conc. 0 nM, EC50 resistant / EC50 wild-type. How it is done:
as §1

Data set [4] concerns genotype 1b replicon cells. The experiment in a line: Selection of drug-resistant genotype 1b replicon cell lines. Type of data set: cell-based, HCV. The conditions noted are these: all eight selected genotype 1b cell lines. As for the experimental part: as §1
Eight drug-resistance replicon cell lines were created by long-term culture of genotype 1b replicon cells with 10 or 25 nM of compound 52. NS3 (AAs 1-631) was sequenced at each passage.
In general terms: In antiviral work, replicon cells carry a viral genome segment that copies itself.

The conditions of data set [5]: human plasma.
For data set [6] the following is noted: 400 mg per day.
For data set [7], the system named is HCV Con1 subgenomic replicon in Huh-7 cells (GS4.1 cells). Description: HCV Replicon Assay (NS4A ELISA). The format is cell-based. The conditions noted are these: Hepatitis C virus, 72 hr. As for the experimental part: Huh-7 cells containing HCV Con1 subgenomic replicon (GS4.1 cells) were grown in Dulbecco's Modified Eagle Medium (DMEM) supplemented with 10% fetal bovine serum (FBS), 2 mM L-glutamine, 110 mg/L sodium pyruvate, 1× non-essential amino acids, 100 U/mL penicillin-streptomycin, and 0.5 mg/mL G418 (Invitrogen). For dose-response testing, the cells were seeded in 96-well plates at 7.5×10^3 cells/well in a volume of 50 μL, and incubated at 37° C./5% CO2. Three hours after plating, 50 μL of ten 2-fold serial dilutions of compounds (highest concentration, 75 μM) were added, and cell cultures were incubated at 37° C./5% CO2 in the presence of 0.5% DMSO. Alternatively, compounds were tested at a single concentration of 15 μM. In all cases, Huh-7 cells lacking the HCV replicon served as negative control. The cells were incubated in the presence of compounds for 72 hr after which they were monitored for expression of the NS4A protein by enzyme-linked immunosorbent assay (ELISA). For this, the plates were then fixed for 1 min with acetone/methanol (1:1, v/v), washed twice with phosphate-buffered saline (PBS), 0.1% Tween 20, blocked for 1 hr at room temperature with TNE buffer containing 10% FBS and then incubated for 2 hr at 37° C. with the anti-NS4A mouse monoclonal antibody A-236 (ViroGen) diluted in the same buffer. After washing three times with PBS, 0.1% Tween 20, the cells were incubated 1 hr at 37° C. with anti-mouse immunoglobulin G-peroxidase conjugate in TNE, 10% FBS. After washing as described above, the reaction was developed with O-phenylenediamine (Zymed). The reaction was stopped after 30 min with 2 N H2SO4, and absorbance was read at 492 nm using Sunrise Tecan spectrophotometer. EC50 values were determined from the % inhibition versus concentration data using a sigmoidal non-linear regression analysis based on four parameters with Tecan Magellan software.

The conditions of data set [8]: mouse plasma.
In a further data set the target is T1, human CYP450 2B6 (Homo sapiens, UniProt P20813).
T1 construct: purchased BD Bioscience
Description: CYP450 inhibition assay, 2B6. The format is in vitro ADME. As for the experimental part:
(§2) Compound 52 was incubated with human CYP450 cDNA-expressed isoenzymes according to the protocol (BD Bioscience). For CYP2C9, a luminogenic substrate was used with the P450-Glo™ kit. In addition, the effect of the compound on CYP2C9-mediated diclofenac metabolism was measured by LC-UV. The potential inhibitory effect of the compound on human UGT1A1 was examined using human liver microsomes and bilirubin as substrate. The metabolites (mono- and di-glucuronidated bilirubin) were measured by LC-UV.

A further data set has as its target T2, human UGT1A1 (Homo sapiens, UniProt P22309).
T2 construct: examined using human liver microsomes and bilirubin as substrate; from tissue; host or cells: human liver microsomes
Description: UGT1A1 inhibition assay. Type of data set: in vitro ADME. Particulars: human liver microsomes, bilirubin as substrate. How it is done:
as §2
(In general: Microsomes from liver hold many membrane-bound enzymes, among them those of drug oxidation.)

The next data set is described as follows: in vitro. The conditions noted are these: human, Caco-2, pH 7.4. As for the experimental part: Caco-2 cells were grown to confluence on collagen-coated, microporous, polycarbonate membranes in 12-well Costar Transwell plates. 5 μM of compound 52 was prepared in Hanks balanced salt solution containing 10 mM HEPES and 15 mM glucose at a pH of 7.4. Cell monolayers were dosed on the apical side (A-to-B) or basolateral side (B-to-A). Samples were taken from the receiver chambers at 120 min and quantified by LC-MS/MS.

The target of the next data set is T3, hERG channel (Homo sapiens, UniProt Q12809).
T3 construct: expressed in transfected cells; host or cells: HEK293
Description: hERG channel currents in voltage-clamped HEK293 cells. Type of data set: cell-based. The source says: One in vitro GLP safety pharmacology study evaluated the effects of compound 52 on hERG channel currents in voltage-clamped human embryonic kidney cells (HEK293) stably expressing the human ether-à-go-go-related gene (hERG) channel. Four in vivo GLP safety pharmacology studies evaluated the potential effects of the compound on the cardiovascular and respiratory systems in the cynomolgus monkey and on the central nervous, renal, and gastrointestinal systems in the CD-1 mouse at single oral doses up to 250 mg/kg of compound 52.
For orientation: The hERG channel carries a current that helps repolarise heart muscle cells.

The target in a further data set is T4, HCV NS3-NS4A protease (Hepatitis C virus genotype 1a, UniProt P27958).
T4 construct: HCV NS3-NS4A protease, which was obtained according to Taremi et al; made in house
The experiment in a line: HCV Protease Assay (SensoLyte 620 HCV Protease Assay kit). Type of data set: biochemical. Particulars: 1.2 nM HCV NS3-NS4A protease, 60 min, room temperature. As for the experimental part: Measurement of the inhibitory effect of compounds on HCV protease activity was performed with the SensoLyte™ 620 HCV Protease Assay kit from AnaSpec, Inc. (San Jose, Calif.) under conditions described by the supplier using 1.2 nM HCV NS3-NS4A protease, which was obtained according to Taremi et al. (Protein Science, 1998, 7, 2143-2149). The compounds were tested at a variety of concentrations in assay buffer containing a final DMSO concentration of 5%. Reactions were allowed to proceed for 60 min at room temperature and fluorescence measurements were recorded with a Tecan Infinity Spectrofluorimeter. The IC50 values were determined from the percent inhibition versus concentration data using a sigmoidal non-linear regression analysis based on four parameters with Tecan Magellan software.

Where two headings read alike, the source gives them in different places.

On to `COc1ccc2c(O[C@H]3CCN4C(=O)N(C)CCCC/C=C\[C@@H]5C[C@@]5(C(=O)NS(=O)(=O)C5(C)CC5)NC(=O)[C@@H]4C3)cc(-c3nc(C(F)(F)F)cs3)nc2c1C` [Compound 52, 1-methyl-cyclopropanesulfonic acid{(Z)-(1S,4R,6S,18S)-18-[7-methoxy-8-methyl-2-(4-trifluoromethyl-thiazol-2-yl)-quinolin-4-yloxy]-13-methyl-2,14-dioxo-3,13,15-triaza-tricyclo[13.4.0.0*4,6*]nonadec-7-ene-4-carbonyl}amide], for which the values for the Fold-Change in data set [1] and in [3] were 900 ± 64 and 1, respectively. Besides, the “protein bound in plasma” value in [2] amounted to 99.9%; in data set [5], 99.6%; in data set [8], 99.2%. In addition, the “fold-change values (resistance)” value in [4] is listed as “no less than 250”. The C24 hr stood at 117 ± 53 ng/mL in data set [6] (PK Day 1), 165 ± 87 ng/mL in data set [6] (PK Day 2) and 197 ± 112 ng/mL in data set [6] (PK Day 3). The EC50 in data set [7] was < 1 µM. For the same molecule, the IC50 at human CYP450 2B6 is ≥ 10 µM; at human UGT1A1, ≥ 10 µM; on HCV NS3-NS4A protease, < 1 µM. The Papp in “in vitro” amounted to 1.8 ×10⁻⁶ cm/s. Besides, the efflux ratio in “in vitro” came to 2.7. At hERG channel, the “effect on cardiac hERG potassium channel current” value was “did not affect”.

The term EC50 denotes the concentration that produces a half-maximal response. As usually defined, the IC50 is the concentration needed to halve the response being measured. The term Papp denotes a coefficient for how fast a substance crosses the barrier. For orientation: efflux ratio means a quotient of directional permeabilities that is used to spot active efflux.
